According to patent US20170058314A1, “NOVEL METHODOLOGY FOR IDENTIFYING ANTI-PERSISTER ACTIVITY AND ANTIMICROBIAL SUSCEPTIBILITY FOR BORRELIA BURGDORFERI AND OTHER BACTERIA” (priority 2014, published 2017):
In brackets after ≈: the same amount, converted by molar mass. Read-outs that look alike come from different tables or passages of the source.

What was measured:
[1] = tested on: B. burgdorferi (growing, strain B31); test: MIC determination, standard microdilution method; type: cell-based, Borrelia burgdorferi; details: for sensitivity of log phase / multiplying B. burgdorferi (words, FIG. 12): MIC test; for MIC: Borreliella burgdorferi, growing B. burgdorferi, read-out: MIC
[2] = tested on: log phase and stationary phase B. burgdorferi culture; test: Antibiotic exposure assay, SYBR Green I/PI (drugs alone and combinations); details: for Live cell %, ten day old stationary phase culture (in brackets): 10 μg/mL drugs or combinations; for viability at 10 µg/mL: Borreliella burgdorferi, 168 h
Method: (§1) To qualitatively determine the effect of antibiotics, 10 μL of each compound from the pre-diluted plate or pre-diluted stock was added to stationary phase B. burgdorferi culture in the 96-well plate. The final volume per well was adjusted to 100 μL at a concentration of 10 μg/mL for each antibiotic. Plates were sealed and placed in a 33° C. incubator for 7 days. The SYBR Green I/PI viability assay was used to assess the live and dead cells after antibiotic exposure as described (Feng, Wang, Shi, et al., 2014). Briefly, 10 μL of SYBR Green I (10,000×stock, Invitrogen) was mixed with 30 μL propidium iodide (PI, 20 mM) into 1.0 mL of sterile dH2O. Then, 10 μL of staining mixture was added to each well and mixed thoroughly. The plates were incubated at room temperature in the dark for 15 minutes followed by plate reading at excitation wavelength at 485 nm and the fluorescence intensity at 535 nm (green emission) and 635 nm (red emission) in microplate reader (HTS 7000 plus Bio Assay Reader, PerkinElmer Inc., USA). With least-square fitting analysis, the regression equation and regression curve of the relationship between percentage of live bacteria and green/red fluorescence ratios was obtained. The regression equation was used to calculate the percentage of live cells in each well of the 96-well plate.
To qualitatively determine the effect of antibiotics, 10 μL of each compound (final concentration 50 μM) from the pre-diluted plate or pre-diluted stock was added to round body form or stationary phase B. burgdorferi culture in the 96-well plate. The final volume per well was adjusted to 100 μL. Plates were sealed and placed in a 33° C. incubator for 7 days. The SYBR Green I/PI viability assay was used to assess the live and dead cells after antibiotic exposure as described (Feng, Wang, Shi, et al., 2014). Briefly, 10 μL of SYBR Green I (10,000×stock, Invitrogen) was mixed with 30 μL propidium iodide (PI, 20 mM, Sigma-Aldrich) into 1.0 mL of sterile dH2O. Then, 10 μL staining mixture was added to each well and mixed thoroughly. The plates were incubated at room temperature in the dark for 15 minutes followed by plate reading at excitation wavelength at 485 nm and the fluorescence intensity at 535 nm (green emission) and 635 nm (red emission) in microplate reader (HTS 7000 plus Bio Assay Reader, PerkinElmer Inc., USA). With least-square fitting analysis, the regression equation and regression curve of the relationship between percentage of live and dead bacteria as shown in green/red fluorescence ratios was obtained. The regression equation was used to calculate the percentage of live cells in each well of the 96-well plate.
Round body form and ten day old stationary phase (in brackets) B. burgdorferi culture was treated with 10 μg/mL drugs or their combinations for 7 days. Residual viable B. burgdorferi was calculated according to the regression equation and ratio of Green/Red fluorescence obtained by SYBR Green I/PI assay as described (Feng, Wang, Shi, et al., 2014). Direct microscopy counting was employed to rectify the results of the SYBR Green I/PI assay. […] Abbreviation: Dox, doxcycline; CefP, cefoperazone; DAP, daptomycin; CefM, cefmetazole; Scp, sulfachlorpyridazine; Art, artemisinin; Nft, nitrofurantoin.

[3] = tested on: B. burgdorferi log and stationary phase cultures; test: epi-fluorescence microscope counting after antibiotic exposure (persister frequency, planktonic forms); type: cell-based, Borrelia burgdorferi; details: 10-day-old stationary phase culture, 10 μg/mL, 7 days, FIG. 17A
Method: Specimens were examined on a Nikon Eclipse E800 microscope equipped with differential interference contrast (DIC) and epi-fluorescence illumination, and recorded with a Spot slider color camera. Cell proliferation assays were performed by direct counting using a bacterial counting chamber (Hausser Scientific Partnership) and DIC microscopy. SYBR Green I/PI assay was performed to assess the viability of B. burgdorferi. The ratio of live (green) and dead (red) B. burgdorferi was calculated by counting these cells using a bacterial counting chamber and epi-fluorescence microscopy. The three representative images of every sample were captured for quantitative analysis. Image Pro-Plus software was applied for measuring the biomass (fluorescence intensity) of different forms (spirochetes, round body, and microcolony) of B. burgdorferi as previously described (Shopov and Williams, 2000).
as §1
Therefore, the frequency of B. burgdorferi persisters in log phase and stationary phase cultures was assessed using the SYBR Green I/PI viability assay after exposure of the cultures to antimicrobials. E. coli culture was used as a control after exposure to antibiotics to validate the SYBR Green I/PI viability assay for persister frequency assessment.

[4] = tested on: stationary phase B. burgdorferi; test: Subculture test of drug-treated stationary phase B. burgdorferi; type: cell-based, Borrelia burgdorferi; details: for G/R ratio immediately after treatment / G/R ratio after 7 day subculture / G/R ratio after 15 day subculture / Spirochetes after 7 day subculture (microscope counting) / Spirochetes after 15 day subculture (microscope counting): 10 μg/mL; for G/R ratio immediately after treatment: 7 days; for G/R ratio after 7 day subculture / G/R ratio after 15 day subculture / Spirochetes after 7 day subculture (microscope counting) / Spirochetes after 15 day subculture (microscope counting): 7 days treatment, then subculture; for viability at 10 µg/mL: Borreliella burgdorferi, 168 h, read-out: Residual viable cells (epifluorescence microscope counting)
Method: Seven-day-old B. burgdorferi culture (1×10^7 spirochetes/mL) (500 μL) was treated with drugs or drug combinations in Eppendorf tubes. After incubation at 33° C. for 7 days without shaking, the cells were collected by centrifugation and rinsed with 1 mL fresh BSK-H medium followed by resuspension in 500 μL fresh BSK-H medium without antibiotics. Then 50 μL of cell suspension was transferred to 1 mL fresh BSK-H medium for subculture at 33° C. for 2 weeks. Cell proliferation was assessed using SYBR Green I/PI assay and bacterial counting chamber (Hausser Scientific Partnership) by microscopy as described above.

[5] = tested on: round body form of B. burgdorferi; test: Subculture test of drug-treated round body form; details: for Spirochetes number After 10 day subculture / Spirochetes number After 20 day subculture: 10 μg/mL, 7 days treatment, then subculture; for viability at 10 µg/mL: Borreliella burgdorferi, 168 h, read-out: Residual viable cells
Method: For induction of round body form of B. burgdorferi, B. burgdorferi spirochetes (1×10^5 spirochetes/mL) were cultured in BKS-H medium for 6 days without shaking. After the 6-day incubation, amoxicillin at a final concentration of 50 μg/mL was added to the culture for round body form induction. After 72 h induction at 33° C., the round body forms of B. burgdorferi were examined by the microscopy. The round body cells (100 μL) were transferred to 96-well tissue culture microplates for evaluation of the effects of antibiotic treatment.

[6] = tested on: round body form of B. burgdorferi; test: SYBR Green I/PI assay on amoxicillin-induced round body form; details: for Live cell %, round body form: 10 μg/mL drugs or combinations; for Live cell %, round body form / Ratios of green/red fluorescence, Primary screening / Ratios of green/red fluorescence, Rescreening (first column) / Ratios of green/red fluorescence, Rescreening (second column): 7 days; for viability at 50 µM: Borreliella burgdorferi, 168 h, read-out: Residual viable cells (SYBR Green I/PI assay); for Ratios of green/red fluorescence, Primary screening / Ratios of green/red fluorescence, Rescreening (first column) / Ratios of green/red fluorescence, Rescreening (second column): round body form, 50 μM
[7] = tested on: stationary phase B. burgdorferi persisters (strain B31); test: SYBR Green I/PI viability assay (plate reader), FDA-approved drug library screen; details: for Ratio of Green/Red fluorescence, Primary screening / Ratio of Green/Red fluorescence, Rescreening (first column) / Ratio of Green/Red fluorescence, Rescreening (second column): 50 μM, 7 days, stationary phase; for viability at 50 µM: Borreliella burgdorferi, 168 h, read-out: Residual viable cells (regression equation, SYBR Green I/PI assay)
[8] = tested on: stationary phase B. burgdorferi persisters (strain B31); test: epifluorescence microscope counting after SYBR Green I/PI staining, FDA drug screen; details: Borreliella burgdorferi, 168 h, read-out: Residual viable cells (epifluorescence microscope counting)
[9] = tested on: B. burgdorferi (growing, strain B31); details: actively growing B. burgdorferi; Feng, Wang, Shi, et al., 2014; cited from earlier work
[10] = tested on: stationary phase B. burgdorferi persisters (strain B31); test: NCI compound library screen, SYBR Green I/PI assay (plate reader); details: Borreliella burgdorferi, 168 h
[11] = tested on: stationary phase B. burgdorferi persisters (strain B31); test: NCI compound library rescreen, epifluorescence microscope counting; details: Borreliella burgdorferi, 168 h
[12] = read-out: Live Cell % (residual viable B. burgdorferi), ten-day-old stationary phase culture enriched with micro-colonies, 10 μg/mL each drug, 7 days

Structure (SMILES) | sensitivity of log phase / multiplying B. burgdorferi (words, FIG. 12) [1] | Live cell %, ten day old stationary phase culture (in brackets) ([2]; 7 days) [%] | viability at 10 µg/mL [2, 12] [%] | G/R ratio immediately after treatment [4] | G/R ratio after 7 day subculture [4] | G/R ratio after 15 day subculture [4] | Spirochetes after 7 day subculture (microscope counting) [4] | Spirochetes after 15 day subculture (microscope counting) [4] | viability at 10 µg/mL [4] [%] | Spirochetes number After 10 day subculture [5] | Spirochetes number After 20 day subculture [5] | viability at 10 µg/mL [5] [%] | Live cell %, round body form [6] [%] | Ratio of Green/Red fluorescence, Primary screening [7] | Ratio of Green/Red fluorescence, Rescreening (first column) [7] | Ratio of Green/Red fluorescence, Rescreening (second column) [7] | viability at 50 µM [7] [%] | viability at 50 µM [8] [%] | MIC [1] [µg/mL] | MIC (previous study) [9] [µg/mL] | further results
CCN1CCN(C(=O)N[C@@H](C(=O)N[C@@H]2C(=O)N3C(C(=O)O)=C(CSc4nnnn4C)CS[C@H]23)c2ccc(O)cc2)C(=O)C1=O [Cefoperazone] | very sensitive | 64 | 64 | 6.60 | 6.13 | 6.95 | 1.5 × 10^6 | 5 × 10^6 | 61 | 9 × 10^5 | 4 × 10^6 | 33 | 30 | 6.54 | 6.32 | 6.23 | 34 | 37 |  |  | planktonic form cells remaining green (live) [3]: 52%
CC(C)/N=c1\cc2n(-c3ccc(Cl)cc3)c3ccccc3nc-2cc1Nc1ccc(Cl)cc1 [Clofazimine] | less potent |  |  |  |  |  |  |  |  |  |  |  |  | 6.56 | 6.23 | 6.02 | 32 | 45 | 6.25 (≈ 13.2 µM) | 6.25 (≈ 13.2 µM) | viability at 10 µg/mL ([2]; read-out: Live Cell % (residual viable B. burgdorferi)): 73%; viability at 50 µM [6]: 32%; Ratios of green/red fluorescence, Primary screening [6]: 6.29; Ratios of green/red fluorescence, Rescreening (first column) [6]: 6.22; Ratios of green/red fluorescence, Rescreening (second column) [6]: 6.24
CCCCCCCCCC(=O)N[C@@H](Cc1c[nH]c2ccccc12)C(=O)N[C@H](CC(N)=O)C(=O)N[C@@H](CC(=O)O)C(=O)N[C@@H]1C(=O)NCC(=O)N[C@@H](CCCN)C(=O)N[C@@H](CC(=O)O)C(=O)N[C@H](C)C(=O)N[C@@H](CC(=O)O)C(=O)NCC(=O)N[C@H](CO)C(=O)N[C@@H]([C@H](C)CC(=O)O)C(=O)N[C@@H](CC(=O)c2ccccc2N)C(=O)O[C@@H]1C [Daptomycin] |  | 48 | 48 | 5.85 | 7.01 | 7.11 | 3.1 × 10^6 | 5 × 10^6 | 55 | 5 × 10^5 | 5 × 10^6 | 18 | 17 | 6.10 | 6.20 | 6.09 | 28 | 35 | 12.5 to 25 (≈ 7.71 to 15.4 µM) | 12.5 to 25 | Live Cell % (residual viable B. burgdorferi) ([2]; Borrelia burgdorferi, 7 days, 10 μg/mL): 52%; viability at 50 µM [6]: 19%; Ratios of green/red fluorescence, Primary screening [6]: 5.90; Ratios of green/red fluorescence, Rescreening (first column) [6]: 6.09; Ratios of green/red fluorescence, Rescreening (second column) [6]: 5.93; viability at 20 µM ([10]; read-out: Residual viable cells (%) 20 μM (SYBR Green I/PI assay), 20 μM, seven day old stationary phase, 7 days): 32%; viability at 50 µM ([10]; read-out: Residual viable cells (SYBR Green I/PI assay), 50 μM, seven day old stationary phase culture, 7 days): 23%; viability at 50 µM ([11]; read-out: Activity against persisters (residual viable cell percentage)): 18%; viability at 20 µM ([11]; read-out: Residual viable cells (%) 20 μM (epifluorescence microscope counting)): 25%; viability at 50 µM ([11]; read-out: Residual viable cells (%) 50 μM (epifluorescence microscope counting)): 18%; viability at 50 µM ([11]; read-out: Residual viable cells (epifluorescence microscope counting)): 18%
